We go through nine compounds from US11236129B2, “IL-17A binding peptides and medical uses thereof” (Dompe' Farmaceutici S.P.A., priority 2018, dated 2022).

Series [1] is classed as physicochemical. Conditions: pH 7.8. As for the experimental part: Each lyophilized peptide was weighed in an amber vial. A calculated volume of phosphate buffered solution at pH 7.8 was added in order to directly obtain 10 mM Stock Solutions. The recovered suspensions were stirred for 30 minutes by orbital shaker incubator at 37° C. Subsequent dilutions were performed to obtain the more diluted stock solutions for the less soluble compounds.
In order to evaluate the stability and the solubility, all the stock solutions were stored at 25° C. The title was evaluated by UHPLC-MS analysis in comparison with the standard solutions, at 3 time points: T0, 3 days, 1 week.
The chromatographic profile was evaluated for the quantitative assay while the MS spectra were detected as support in the stability studies.
Each peptide was weighed and directly diluted at 100 μM with the phosphate buffer at pH 7.8. The solutions were stirred for 5 minutes by vortex and heated at 37° C. for 20 minutes. The obtained standard solution was stored at 25° C. in the dark under controlled temperature.
A portion of the stock solutions was collected in an amber vial and diluted to 100 μM by phosphate buffer at pH 7.8 (dilution factor, 1:100).
Reversed-phase UHPLC was performed operating at a flow rate of 0.3 ml/min with a Luna Omega Polar C18 column ([…] 1.6 μm, 2.1×100 mm). Solvent A was 0.5% Formic Acid in water and solvent B was 0.5% Formic Acid in acetonitrile. First, samples were loaded onto the column and washed isocratically at 10% B for 3 min. Then, a gradient of 10-95% B was run over 22 min, held at 95% for 2 min, and then decreased to 10% over 1 min and held, for the pressure stabilization, for 5 min. UV Absorption was monitored by DAD (220-400 nm). ESI-MS ion trap was used for the monitoring of TIC.

Series [2] concerns the target IL-17RA/IL17RC dimerization induced by IL-17A (Homo sapiens, UniProt Q16552). Briefly: IL-17RA/IL17RC dimerization assay in response to IL-17A (PathHunter Cytokine Receptor Assay). Conditions: IL-17A at EC80; read-out: IC50 in IL-17RA/IL7RC dimerization assay. It is filed as cell-based. The method in brief: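 PathHunter cells with IL-17RA and IL-17RC tagged for β-galactosidase complementation were preincubated 60 min with peptide (1% vehicle). IL-17A was then added at EC80 for 6–16 h at 37 °C, and chemiluminescence was read. Inhibition is relative to the EC80 and vehicle controls.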

Series [3] can be described thus: Isoelectric point, log D and log P (SiriusT3). The series is classed as physicochemical. Conditions: for IP (isoelectric point): 25±1° C., 0.15 M KCl. As for the experimental part:
The main physicochemical properties (Isoelectric point (IP), log D (7.4) and log P) of the peptides of Table 8 below were determined by using the SiriusT3 apparatus (Sirius Analytical Instruments Ltd., East Sussex, UK) equipped with an Ag/AgCl double junction reference pH electrode, a Sirius D-PAS spectrometer and a turbidity sensing device. […] An overhead stirrer was used and a temperature probe (Peltier controller) monitored the temperature during the course of the titration. The titration experiments were conducted in 0.15 M KCl Ionic Strength Adjusted solution (ISA water) under a nitrogen atmosphere at a temperature of 25±1° C. All tests were performed using standardized 0.5 M KOH and 0.5 M HCl as titration reagents, for the partition coefficient tests a saturated Octanol in ISA water (5% of ISA water) was used as partition solvent. The pKas were determined by potentiometric method by pH-metric titration. The powder (around 0.5 mg) was dissolved in 1.5 ml of ISA water and the titration was performed in triplicate in the pH range 2.0−12.0.

Setting [4] is: octanol/ISA water, read-out: logP.
The mark [5] stands for this setting: pH 7.4, pH 7.4, octanol/ISA water, read-out: Log D (7.4).

Where two headings read alike, the source gives them in different places. Residues, ends and D or L forms follow the SMILES beside them.

IL-17RA/IL17RC dimerization induced by IL-17A, sequence (Q16552 24-155): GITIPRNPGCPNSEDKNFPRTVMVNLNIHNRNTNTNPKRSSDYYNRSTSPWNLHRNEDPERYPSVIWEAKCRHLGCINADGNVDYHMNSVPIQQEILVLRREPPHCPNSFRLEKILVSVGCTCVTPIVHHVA

With `CC[C@H](C)[C@H](NC(=O)[C@H](Cc1c[nH]c2ccccc12)NC(=O)[C@H](CCC(=O)O)NC(=O)[C@H](Cc1ccc(O)cc1)NC(=O)[C@H](CC(C)C)NC(=O)[C@H](CC(=O)O)NC(=O)[C@H](C)NC(=O)[C@@H]1CCCN1C(=O)[C@@H](NC(=O)[C@@H](NC(=O)[C@@H](NC(=O)[C@H](CCSC)NC(=O)[C@@H](NC(C)=O)C(C)C)C(C)C)[C@@H](C)O)[C@@H](C)CC)C(=O)N[C@@H](CCC(=O)O)C(=O)N[C@@H](CCC(=O)O)C(=O)NCC(=O)NCC(=O)N[C@H](C(=O)N[C@@H](Cc1c[nH]c2ccccc12)C(=O)N[C@@H](Cc1c[nH]c2ccccc12)C(=O)N[C@H](C(=O)N[C@@H](CCC(=O)O)C(=O)N[C@@H](Cc1c[nH]c2ccccc12)C(=O)N[C@@H](CO)C(=O)N[C@@H](CCC(N)=O)C(N)=O)[C@@H](C)O)[C@@H](C)O` [SEQ ID NO: 22] (Ac-VMVTIPADLYEWIEEGGTWWTEWSQ-NH2), the solubility (in general, how much of the substance goes into solution per volume) in series [1] is more than 10000 µM. The IC50 in series [2] was less than 1000 nM. Further, the “IP (isoelectric point)” value in series [3] worked out at 4.26. Besides, the log partition coefficient (logP) – broadly, the decadic logarithm of the partition coefficient of the neutral form, usually between octanol and water – in series [3] (setting [4]) was determined as 0.4. For the same compound, the logD in series [3] (setting [5]) was -3.18.

Regarding `CC[C@H](C)[C@H](NC(C)=O)C(=O)N[C@@H](Cc1c[nH]cn1)C(=O)N[C@H](C(=O)N[C@H](C(=O)N[C@H](C(=O)N1CCC[C@H]1C(=O)N[C@@H](C)C(=O)N[C@@H](CCC(=O)O)C(=O)N[C@@H](CC(C)C)C(=O)N[C@@H](Cc1c[nH]c2ccccc12)C(=O)N[C@@H](CC(=O)O)C(=O)N[C@@H](Cc1c[nH]c2ccccc12)C(=O)N[C@H](C(=O)N[C@@H](CC(N)=O)C(=O)N[C@@H](CCCCN)C(N)=O)[C@@H](C)CC)[C@@H](C)CC)[C@@H](C)O)C(C)C` [SEQ ID NO: 5] (Ac-IHVTIPAELWDWINK-NH2), in series [1], the solubility is not below 1000 µM. Also, the IC50 in series [2] is less than 100 nM. Also, the “IP (isoelectric point)” value in series [3] turned out to be 5.19. Besides, in series [3] (setting [4]), the logP is -0.51. The logD in series [3] (setting [5]) is -1.26.

Regarding `CC[C@H](C)[C@H](NC(=O)[C@H](Cc1c[nH]c2ccccc12)NC(=O)[C@H](CCC(=O)O)NC(=O)[C@H](Cc1ccc(O)cc1)NC(=O)[C@H](CC(C)C)NC(=O)[C@H](CC(=O)O)NC(=O)[C@H](C)NC(=O)[C@@H]1CCCN1C(=O)[C@@H](NC(=O)[C@@H](NC(=O)[C@@H](NC(=O)[C@H](CCSC)NC(=O)[C@@H](NC(C)=O)C(C)C)C(C)C)[C@@H](C)O)[C@@H](C)CC)C(=O)N[C@@H](CCC(=O)O)C(=O)N[C@@H](CCC(=O)O)C(=O)N[C@@H](CCCNC(=N)N)C(=O)N[C@@H](CCCNC(=N)N)C(=O)N[C@@H](CCCNC(=N)N)C(=O)N[C@@H](CCCNC(=N)N)C(=O)N[C@@H](CCCNC(=N)N)C(=O)N[C@@H](CCCNC(=N)N)C(N)=O` [SEQ ID NO: 19] (Ac-VMVTIPADLYEWIEERRRRRR-NH2), the solubility in series [1] is not below 100 µM. In series [2], the IC50 is less than 1000 nM. Also, in series [3], the “IP (isoelectric point)” value amounted to 12.49. For the same compound, the logD in series [3] (setting [5]) is -3.94.

As to `CC[C@H](C)[C@H](NC(=O)[C@H](Cc1c[nH]c2ccccc12)NC(=O)[C@H](CC(=O)O)NC(=O)[C@H](Cc1c[nH]c2ccccc12)NC(=O)[C@H](CC(C)C)NC(=O)[C@H](CC(=O)O)NC(=O)[C@H](C)NC(=O)[C@@H]1CCCN1C(=O)[C@@H](NC(=O)[C@@H](NC(=O)[C@@H](NC(=O)[C@H](CCSC)NC(=O)[C@@H](NC(C)=O)C(C)C)C(C)C)[C@@H](C)O)[C@@H](C)CC)C(=O)N[C@@H](CC(N)=O)C(=O)N[C@@H](CCCCN)C(N)=O` [SEQ ID NO: 4] (Ac-VMVTIPADLWDWINK-NH2), the solubility in series [1] was not below 20 µM. The IC50 in series [2] was less than 100 nM. Moreover, the “IP (isoelectric point)” value in series [3] turned out to be 3.90. In series [3] (setting [4]), the logP amounted to 1.88. Also, the logD in series [3] (setting [5]) was -1.32.

In series [1], `CC[C@H](C)[C@H](NC(=O)[C@H](Cc1c[nH]c2ccccc12)NC(=O)[C@H](CCC(=O)O)NC(=O)[C@H](Cc1ccc(O)cc1)NC(=O)[C@H](CC(C)C)NC(=O)[C@H](CC(=O)O)NC(=O)[C@H](C)NC(=O)[C@@H]1CCCN1C(=O)[C@@H](NC(=O)[C@@H](NC(=O)[C@@H](NC(=O)[C@H](CCSC)NC(=O)[C@@H](NC(C)=O)C(C)C)C(C)C)[C@@H](C)O)[C@@H](C)CC)C(=O)N[C@@H](CC(N)=O)C(=O)N[C@@H](CCCCN)C(N)=O` [SEQ ID NO: 16] (Ac-VMVTIPADLYEWINK-NH2) gave a solubility of more than 10000 µM. Besides, the IC50 in series [2] was less than 400 nM. Also, the “IP (isoelectric point)” value in series [3] is given as 5.19. In series [3] (setting [4]), the lipophilicity (logP) worked out at 0.13. Besides, in series [3] (setting [5]), the logD was found to be 0.24.

Consider `CC[C@H](C)[C@H](NC(=O)[C@H](Cc1c[nH]c2ccccc12)NC(=O)[C@H](CCC(=O)O)NC(=O)[C@H](Cc1ccc(O)cc1)NC(=O)[C@H](CC(C)C)NC(=O)[C@H](CC(=O)O)NC(=O)[C@H](C)NC(=O)[C@@H]1CCCN1C(=O)[C@@H](NC(=O)[C@@H](NC(=O)[C@@H](NC(=O)[C@H](CCSC)NC(=O)[C@@H](NC(=O)CNC(=O)[C@H](CCCCN)NC(=O)CNC(=O)[C@@H]1CCCN1C(=O)[C@@H](NC(C)=O)C(C)C)C(C)C)C(C)C)[C@@H](C)O)[C@@H](C)CC)C(=O)N[C@@H](CCC(=O)O)C(=O)N[C@@H](CCC(=O)O)C(N)=O` [SEQ ID NO: 36] (Ac-VPGKGVMVTIPADLYEWIEE-NH2), for which the solubility in series [1] was not below 100 µM. The IC50 in series [2] was less than 1000 nM. The “IP (isoelectric point)” value in series [3] is given as 8.13. The log partition coefficient (logP) in series [3] (setting [4]) is -1.09. In series [3] (setting [5]), the logD is -1.24.

`CC[C@H](C)[C@H](NC(C)=O)C(=O)N[C@@H](Cc1c[nH]cn1)C(=O)N[C@H](C(=O)N[C@H](C(=O)N[C@H](C(=O)N1CCC[C@H]1C(=O)N[C@@H](C)C(=O)N[C@@H](CC(=O)O)C(=O)N[C@@H](CC(C)C)C(=O)N[C@@H](Cc1c[nH]c2ccccc12)C(=O)N[C@@H](CC(=O)O)C(=O)N[C@@H](Cc1c[nH]c2ccccc12)C(=O)N[C@H](C(=O)N[C@@H](CCC(=O)O)C(=O)N[C@@H](CCC(=O)O)C(N)=O)C(C)C)[C@@H](C)CC)[C@@H](C)O)C(C)C` [SEQ ID NO: 15] (Ac-IHVTIPADLWDWVEE-NH2) had a solubility in series [1] not below 50 µM. The IC50 in series [2] was less than 400 nM. The “IP (isoelectric point)” value in series [3] is listed as 3.51. In series [3] (logP), this compound returned a logP of 1.66. In series [3] (pH 7.4, Log D (7.4)), the logD is 1.88.

With `CC[C@H](C)[C@H](NC(=O)[C@H](Cc1c[nH]c2ccccc12)NC(=O)[C@H](CCC(=O)O)NC(=O)[C@H](Cc1ccc(O)cc1)NC(=O)[C@H](CC(C)C)NC(=O)[C@H](CC(=O)O)NC(=O)[C@H](C)NC(=O)[C@@H]1CCCN1C(=O)[C@@H](NC(=O)[C@@H](NC(=O)[C@@H](NC(=O)[C@H](CCSC)NC(=O)[C@@H](NC(C)=O)C(C)C)C(C)C)[C@@H](C)O)[C@@H](C)CC)C(=O)N[C@@H](CCC(=O)O)C(=O)N[C@@H](CCC(=O)O)C(=O)N[C@H](C(=O)N1CCC[C@H]1C(=O)NCC(=O)N[C@@H](CC(=O)O)C(=O)NCC(N)=O)C(C)C` [SEQ ID NO: 40] (Ac-VMVTIPADLYEWIEEVPGDG-NH2), the solubility in series [1] is more than 10000 µM. Further, in series [2], the IC50 is less than 200 nM. In series [3], the “IP (isoelectric point)” value came out at 4.21. Moreover, the logP in series [3] (setting [4]) was -4.93. For the same compound, the logD in series [3] (setting [5]) was -3.5.

`CC[C@H](C)[C@H](NC(=O)[C@H](Cc1c[nH]c2ccccc12)NC(=O)[C@H](CCC(=O)O)NC(=O)[C@H](Cc1ccc(O)cc1)NC(=O)[C@H](CC(C)C)NC(=O)[C@H](CC(=O)O)NC(=O)[C@H](C)NC(=O)[C@@H]1CCCN1C(=O)[C@@H](NC(=O)[C@@H](NC(=O)[C@@H](NC(=O)[C@H](CCSC)NC(=O)[C@@H](NC(C)=O)C(C)C)C(C)C)[C@@H](C)O)[C@@H](C)CC)C(=O)N[C@@H](CCC(=O)O)C(=O)N[C@@H](CCC(=O)O)C(=O)N[C@H](C(=O)N1CCC[C@H]1C(=O)NCC(=O)N[C@@H](CCCCN)C(=O)NCC(N)=O)C(C)C` [SEQ ID NO: 26] (Ac-VMVTIPADLYEWIEEVPGKG-NH2) returned a solubility in series [1] of more than 10000 µM. Besides, the IC50 in series [2] was less than 1000 nM. Also, the “IP (isoelectric point)” value in series [3] is given as 8.13. In series [3] (setting [4]), the logP was 0.69. Further, the logD in series [3] (setting [5]) stood at 0.148.
